Results as given in patent US20060189519A1, “Anti-angiogenic fragments fo pigment epithelium-derived factor (pedf)” (priority 2002, published 2006).

Key:
[1] = system: Microvascular endothelial cells (HMVECs); assay: VEGF-induced endothelial cell chemotaxis/migration assay (Boyden chamber); type: cell-based, human; conditions: at 100 nM (44-mer: 100 nM or higher)
Experimental: FIG. 3. In vitro anti-angiogenic activity by […] and 44-mer PEDF peptides. Microvascular endothelial cells (HMVECs) chemotaxis up the gradient of pro-angiogenic VEGF was examined in the presence of the 44-mer or 34-mer. FIG. 3A Recombinant PEDF (rPEDF, BH) (10 nM), 34-mer (1 μM) and 44-mer (1 μM) were tested alone (empty bars), or in the presence of VEGF (hatched bars). Anti-PEDF neutralizing antibodies were added where shown (filled bars). FIG. 3B 34-mer (●) and 44-mer (♦) were tested with VEGF (100 pg/ml) at increasing concentrations. ED50 was determined using regression curves.
Two large peptides from PEDF, a “34-mer” (amino acids 24-57 of SEQ ID NO:1) and a “44-mer” (residues 58-101 of SEQ ID NO:1), were tested for their ability to block angiogenesis. […] (Alberdi et al., 1999) In the anti-angiogenesis assays, only the 34-mer inhibited VEGF-induced angiogenesis in vitro. Anti-angiogenic activity of the 34-mer peptide was blocked with neutralizing antibodies effective against the whole molecule.
HUVEC migration assay are performed as previously described (Good et al., PNAS, 1990). […] Then, the stained membranes are dried, mounted, and the cells migrated to the top part of membrane counted in 10 high-powered (400×) fields. […]

[2] = system: HUVECs; assay: Endothelial cell apoptosis assay (TUNEL, ApopTag); type: cell-based, human; conditions: for induction of endothelial cell apoptosis: in vitro, low serum (0.2%)
Experimental: FIG. 5. Endothelial cell apoptosis induced by TGA and ERT-L PEDF peptides. 90% confluent HUVECs were treated with increasing concentrations of TGA (FIG. 5A) or ERT-L (FIG. 5B). Apoptotic cells were detected with ApopTag assay kit (Intergen) and percent of TUNEL positive cells calculated.
Apoptosis by PEDF and by the 34-mer were mediated by the same signaling events including activation of JNK-1. Apoptosis by both PEDF and by its 34-mer fragment were abolished in the presence of JNK-1 specific inhibitor SP600125 (BioMol). […] The 44-mer had no activity.
Cells were plated on gelatinized glass cover slips in 24-well tissue culture plates at 5×10^4 cells/well, treated with indicated compounds in low serum (0.2%), fixed in 1% buffered paraformaldehyde, stained using the ApopTag in situ cell death detection kit according to the manufacturer's instructions (Serologicals corporation) and counterstained with propidium iodide. The percentage of terminal deoxynucleotidyl transferase-mediated dUTP nick end labeling (TUNEL)-positive cells was calculated as the number of TUNEL-positive cells (counted in 2-6 randomly selected fields from two different chambers) divided by the total number of cells. 600-1200 cells were scored for each treatment.
Human umbilical vein endothelial cells (HUVEC, NCI) were grown to 90% confluence and treated with peptides overnight in low (0.2%) serum. Apoptotic cells were detected using TUNEL assay kit (InterGene) and percent apoptotic cells were calculated (FIG. 5).

[3] = system: Y-79 retinoblastoma cells; conditions: previously shown (Alberdi et al., 1999); cited from earlier work
[4] = system: bFGF-induced corneal angiogenesis; assay: Mouse corneal neovascularization assay (bFGF pellet); type: in vivo; conditions: for Positive comeas/total: bFGF 50 ng/pellet, day 5 after implantation; for effect on mouse corneal neovascularization in vivo: bFGF pellet, peptides at 10 and 100 μM
Experimental: Angiogenesis was induced in the mouse cornea by implanting slow release pellets containing bFGF (50 ng/pellet). Peptides at 10 and 100 μM were added where indicated. Angiogenesis was observed on day 5 after implantation and a vigorous ingrowth of the blood vessels reaching the pellet was scored as a positive response. The peptide abbreviations are as above; PBS is phosphate buffer solution.

[5] = system: endothelial cells (HUVEC); assay: Endothelial cell migration up the gradient of pro-angiogenic bFGF; type: cell-based, human
Experimental: HUVEC migration assay are performed as previously described (Good et al., PNAS, 1990). The cells are starved overnight in MCDB131 medium supplemented with 0.1% bovine serum albumin (BSA, Sigma) and placed at 1.5 10^6 cells/ml in the bottom part of a 48-well modified Boyden chambers (Neuroprob Corp.), separated from the top part by gelatinized micro porous membrane (8 μm pore size, Nucleopor/Whatman). The inverted chambers are incubated for 1.5 h for the cells to attach. The chamber are then re-inverted, test substances added to the top part of the top well and incubated for additional 3h30 to allow migration. The chamber are disassembled, the membranes fixed, the cells visualized using Diff-Quick staining kit (Fisher). Then, the stained membranes are dried, mounted, and the cells migrated to the top part of membrane counted in 10 high-powered (400×) fields. MCDB131 containing 0.1% BSA, is used as a negative control and 10 ng/ml bFGF as a positive control. Each substance is tested in quadruplicate to allow statistical evaluation of the data within a single experiment. Each experiment is repeated 3 times to ensure the reproducibility.
The peptides were tested in vitro for their ability to block endothelial cell migration up the gradient of pro-angiogenic bFGF.

44-mer: PEDF peptide, residues 58-101 of SEQ ID NO:1, previously shown to have neurotrophic activity (VLLSPLSVATALSALSLGAEQRTESIIHRALYYDLISSPDIHGT; listed as Homo sapiens) [reference compound]
inhibition of VEGF-induced endothelial cell chemotaxis [1]: no inhibitory activity | induction of endothelial cell apoptosis [2]: no activity | binding to and differentiation of Y-79 retinoblastoma cells [3]: bind to and induce differentiation

DPFFKVPVNKLAAAVSNFGYDLYRVRSSMSPTTN [34-mer]
inhibition of VEGF-induced endothelial cell chemotaxis [1]: inhibited | dose at which maximal apoptosis effect is reached ([2]; cultured endothelial cells): 100 nM

acetyl-ERTESIIHRAL-amide (Ac-ERTESIIHRAL-NH2) [ERT-S, PEDF residues 78-88]
Positive comeas/total ([4]; peptide 10 μM): 5/6 | Positive comeas/total ([4]; peptide 100 μM): 4/6

acetyl-ERTESIIHRALYYDLIS-amide (Ac-ERTESIIHRALYYDLIS-NH2) [ERT-L, PEDF residues 78-94]
induction of endothelial cell apoptosis [2]: induced apoptosis | effect on mouse corneal neovascularization in vivo [4]: blocked mouse corneal neovascularization | Positive comeas/total ([4]; peptide 10 μM): 2/6 | Positive comeas/total ([4]; peptide 100 μM): 1/5 | ability to block endothelial cell migration up the gradient of bFGF [5]: showed anti-angiogenic activity

acetyl-LYYDLISSPDIHGTYKE-amide (Ac-LYYDLISSPDIHGTYKE-NH2) [PEDF residues 88-104]
Positive comeas/total ([4]; peptide 10 μM): 5/6 | Positive comeas/total ([4]; peptide 100 μM): 5/5

acetyl-SSPDIHGTYKE-amide (Ac-SSPDIHGTYKE-NH2) [PEDF residues 94-104]
Positive comeas/total ([4]; peptide 10 μM): 6/6 | Positive comeas/total ([4]; peptide 100 μM): 4/4

acetyl-TGALVEEEDPF-amide (Ac-TGALVEEEDPF-NH2) [PEDF residues 16-26]
induction of endothelial cell apoptosis [2]: induced apoptosis | effect on mouse corneal neovascularization in vivo [4]: blocked mouse corneal neovascularization | Positive comeas/total ([4]; peptide 10 μM): 4/6 | Positive comeas/total ([4]; peptide 100 μM): 2/6 | ability to block endothelial cell migration up the gradient of bFGF [5]: showed anti-angiogenic activity
